In ChEMBL document CHEMBL2074555 (Biochem Pharmacol, 1992):

Biological target: ATP-dependent translocase ABCB1 (Mus musculus, UniProt P21447)
Experiment: TP_TRANSPORTER: increase in Vinblastine intracellular accumulation in F4-6RADR cells
Format: functional, cell-based

ATP-dependent translocase ABCB1, sequence (P21447 whole entry): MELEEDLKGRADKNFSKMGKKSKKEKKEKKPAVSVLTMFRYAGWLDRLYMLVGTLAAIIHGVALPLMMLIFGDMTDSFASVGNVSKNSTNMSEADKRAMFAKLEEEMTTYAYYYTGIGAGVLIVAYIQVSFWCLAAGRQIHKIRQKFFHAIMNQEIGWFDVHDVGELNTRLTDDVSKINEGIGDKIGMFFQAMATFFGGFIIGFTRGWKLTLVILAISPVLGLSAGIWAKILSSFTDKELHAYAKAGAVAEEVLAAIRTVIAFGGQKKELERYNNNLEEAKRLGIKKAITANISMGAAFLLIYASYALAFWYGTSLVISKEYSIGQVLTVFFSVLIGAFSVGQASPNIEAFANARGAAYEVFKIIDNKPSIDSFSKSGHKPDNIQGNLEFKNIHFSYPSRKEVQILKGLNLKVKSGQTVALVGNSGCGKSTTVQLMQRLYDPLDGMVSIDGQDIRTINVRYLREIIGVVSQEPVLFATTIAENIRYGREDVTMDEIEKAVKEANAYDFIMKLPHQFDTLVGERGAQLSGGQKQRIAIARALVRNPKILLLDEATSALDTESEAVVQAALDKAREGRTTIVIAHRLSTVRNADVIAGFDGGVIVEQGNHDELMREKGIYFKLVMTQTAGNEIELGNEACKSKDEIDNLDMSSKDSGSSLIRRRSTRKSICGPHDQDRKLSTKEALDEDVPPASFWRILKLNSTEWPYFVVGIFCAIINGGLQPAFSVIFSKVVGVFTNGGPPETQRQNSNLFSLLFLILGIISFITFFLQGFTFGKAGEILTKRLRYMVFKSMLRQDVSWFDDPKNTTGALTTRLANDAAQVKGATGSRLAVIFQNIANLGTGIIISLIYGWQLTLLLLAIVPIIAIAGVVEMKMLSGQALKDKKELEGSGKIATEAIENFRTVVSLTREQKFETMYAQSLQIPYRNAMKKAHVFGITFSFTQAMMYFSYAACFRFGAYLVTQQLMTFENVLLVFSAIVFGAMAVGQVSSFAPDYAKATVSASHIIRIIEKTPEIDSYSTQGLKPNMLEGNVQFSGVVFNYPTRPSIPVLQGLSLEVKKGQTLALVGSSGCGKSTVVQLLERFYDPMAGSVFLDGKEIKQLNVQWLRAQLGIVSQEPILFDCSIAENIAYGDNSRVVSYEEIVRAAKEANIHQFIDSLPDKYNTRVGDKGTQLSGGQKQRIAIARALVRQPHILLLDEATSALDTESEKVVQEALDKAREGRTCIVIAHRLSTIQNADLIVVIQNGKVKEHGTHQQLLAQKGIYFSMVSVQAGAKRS

Activity | SMILES
inhibitor [+] | COC(=O)C1=C(C)NC(C)=C(C(=O)OCCCN2CCC(c3ccccc3)(c3ccccc3)CC2)[C@H]1c1cccc([N+](=O)[O-])c1 [NIGULDIPINE]
inhibitor [+] | CCOC(=O)C1=C(C)NC(C)=C(C(=O)OC)C1c1cccc(Cl)c1Cl (stereo not drawn) [FELODIPINE]
inhibitor [+] | COC(=O)C1=C(C)NC(C)=C(C(=O)OC(C)C)C1c1cccc2nonc12 (stereo not drawn) [ISRADIPINE]
inhibitor [+] | CC(C)C(C#N)(CCCN(C)CCc1ccccc1)c1ccccc1 (stereo not drawn) [EMOPAMIL]
inhibitor [+] | COc1cccc(CCN(C)CCCC(C#N)(c2ccc(OC)c(OC)c2)C(C)C)c1 (stereo not drawn)
inhibitor [+] | COc1ccc(CCN(C)CCCC(C#N)(c2cc(OC)c(OC)c(OC)c2)C(C)C)cc1OC (stereo not drawn) [GALLOPAMIL]
inhibitor [+] | COCCOC(=O)C1=C(C)NC(C)=C(C(=O)OC(C)C)C1c1cccc([N+](=O)[O-])c1 (stereo not drawn) [NIMODIPINE]
inhibitor [+] | CCOC(=O)C1=C(C)NC(C)=C(C(=O)OC)C1c1cccc([N+](=O)[O-])c1 (stereo not drawn) [NITRENDIPINE]
